Data as given in PubChem BioAssay (NCI).
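All cell lines were grown in 96-well plates and treated with compound for 48 hours. Abbreviation: GI50, concentration required for 50% inhibition of growth. TGI denotes the concentration required for complete inhibition of growth.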

Key:
Assay in all cases: growth of human tumour cells (NCI), 48 h
MCF7 breast = tested on: MCF7 breast
MALME-3M melanoma = tested on: MALME-3M melanoma
NCI-H23 lung = tested on: NCI-H23 lung
HOP-92 NSCLC = tested on: HOP-92 NSCLC
MDA-MB-435 = tested on: MDA-MB-435
OVCAR-4 ovarian = tested on: OVCAR-4 ovarian
EKVX NSCLC = tested on: EKVX NSCLC
SF-268 CNS = tested on: SF-268 CNS
SNB-75 CNS = tested on: SNB-75 CNS
HL-60(TB) leukemia = tested on: HL-60(TB) leukemia
SK-MEL-5 melanoma = tested on: SK-MEL-5 melanoma
CAKI-1 renal = tested on: CAKI-1 renal
COLO 205 colon = tested on: COLO 205 colon
KM12 colon = tested on: KM12 colon
NCI-H522 lung = tested on: NCI-H522 lung
MOLT-4 leukemia = tested on: MOLT-4 leukemia
SK-MEL-28 melanoma = tested on: SK-MEL-28 melanoma
SF-295 CNS = tested on: SF-295 CNS
OVCAR-5 ovarian = tested on: OVCAR-5 ovarian
HCT-116 colon = tested on: HCT-116 colon
DU-145 prostate = tested on: DU-145 prostate
IGROV1 ovarian = tested on: IGROV1 ovarian
SK-MEL-2 melanoma = tested on: SK-MEL-2 melanoma
M14 melanoma = tested on: M14 melanoma
ACHN renal = tested on: ACHN renal
RPMI-8226 leukemia = tested on: RPMI-8226 leukemia
SN12C renal = tested on: SN12C renal
HOP-62 NSCLC = tested on: HOP-62 NSCLC
NCI-H226 lung = tested on: NCI-H226 lung
SK-OV-3 ovarian = tested on: SK-OV-3 ovarian
A549 NSCLC = tested on: A549 NSCLC
CCRF-CEM leukemia = tested on: CCRF-CEM leukemia
LOX IMVI melanoma = tested on: LOX IMVI melanoma
U251 CNS = tested on: U251 CNS
HCC-2998 colon = tested on: HCC-2998 colon
HS 578T breast = tested on: HS 578T breast
UACC-62 melanoma = tested on: UACC-62 melanoma
OVCAR-3 ovarian = tested on: OVCAR-3 ovarian
NCI-H460 lung = tested on: NCI-H460 lung
UACC-257 melanoma = tested on: UACC-257 melanoma
PC-3 prostate = tested on: PC-3 prostate
BT-549 breast = tested on: BT-549 breast
SW-620 colon = tested on: SW-620 colon
TK-10 renal = tested on: TK-10 renal
786-0 renal = tested on: 786-0 renal
SNB-19 CNS = tested on: SNB-19 CNS
T-47D breast = tested on: T-47D breast
K-562 leukemia = tested on: K-562 leukemia
UO-31 renal = tested on: UO-31 renal
RXF 393 renal = tested on: RXF 393 renal
OVCAR-8 ovarian = tested on: OVCAR-8 ovarian
SF-539 CNS = tested on: SF-539 CNS
MDA-MB-231 breast = tested on: MDA-MB-231 breast
HT29 colon = tested on: HT29 colon
NCI/ADR-RES ovarian = tested on: NCI/ADR-RES ovarian
HCT-15 colon = tested on: HCT-15 colon
A498 renal = tested on: A498 renal
SR leukemia = tested on: SR leukemia

## Cc1cc(S(=O)(=O)NC#N)c(S/C(=N\Nc2ccc([N+](=O)[O-])cc2)c2ccccc2)cc1Cl
MCF7 breast
  GI50: 14.7 µM
  TGI: 28.3 µM
MALME-3M melanoma
  GI50: 16.5 µM
  TGI: 39.6 µM
NCI-H23 lung
  GI50: 15.4 µM
  TGI: 28.8 µM
HOP-92 NSCLC
  GI50: 10.7 µM
  TGI: 32.7 µM
MDA-MB-435
  GI50: 32.7 µM
  TGI: > 100 µM
OVCAR-4 ovarian
  GI50: 13.9 µM
  TGI: 31.8 µM
EKVX NSCLC
  GI50: 17.2 µM
  TGI: 34.7 µM
SF-268 CNS
  GI50: 19.2 µM
  TGI: 43.7 µM
SNB-75 CNS
  GI50: 20.4 µM
  TGI: > 100 µM
HL-60(TB) leukemia
  GI50: 21.6 µM
  TGI: 83.1 µM
SK-MEL-5 melanoma
  GI50: 19.3 µM
  TGI: 35.7 µM
CAKI-1 renal
  GI50: 21.1 µM
  TGI: 45.8 µM
COLO 205 colon
  GI50: 44.7 µM
  TGI: > 100 µM
KM12 colon
  GI50: 16.6 µM
  TGI: 30.2 µM
NCI-H522 lung
  GI50: 14.6 µM
  TGI: 32.6 µM
MOLT-4 leukemia
  GI50: 4.43 µM
  TGI: 81.2 µM
SK-MEL-28 melanoma
  GI50: 17.2 µM
  TGI: 37.4 µM
SF-295 CNS
  GI50: 15.9 µM
  TGI: 34 µM
OVCAR-5 ovarian
  GI50: 15.7 µM
  TGI: 32.4 µM
HCT-116 colon
  GI50: 13.8 µM
  TGI: 30.6 µM
DU-145 prostate
  GI50: 11.7 µM
  TGI: 24 µM
IGROV1 ovarian
  GI50: 17.9 µM
  TGI: 39.3 µM
SK-MEL-2 melanoma
  GI50: 13.8 µM
  TGI: 34 µM
M14 melanoma
  GI50: 18.1 µM
  TGI: 37.3 µM
ACHN renal
  GI50: 18 µM
  TGI: 41.5 µM
RPMI-8226 leukemia
  GI50: 19.5 µM
  TGI: 61.8 µM
SN12C renal
  GI50: 20.9 µM
  TGI: 52.3 µM
HOP-62 NSCLC
  GI50: 17.2 µM
  TGI: 32.3 µM
NCI-H226 lung
  GI50: 16.3 µM
  TGI: 33.1 µM
SK-OV-3 ovarian
  GI50: > 100 µM
  TGI: > 100 µM
A549 NSCLC
  GI50: 18.7 µM
  TGI: 40.8 µM
CCRF-CEM leukemia
  GI50: 20.2 µM
  TGI: 51.5 µM
LOX IMVI melanoma
  GI50: 15.4 µM
  TGI: 28.8 µM
U251 CNS
  GI50: 14.9 µM
  TGI: 28.1 µM
HCC-2998 colon
  GI50: 17.2 µM
  TGI: 30.9 µM
HS 578T breast
  GI50: 16.2 µM
  TGI: 43.2 µM
UACC-62 melanoma
  GI50: 21.5 µM
  TGI: 51.8 µM
OVCAR-3 ovarian
  GI50: 14.2 µM
  TGI: 30.5 µM
NCI-H460 lung
  GI50: 18.7 µM
  TGI: 36.3 µM
UACC-257 melanoma
  GI50: 35.9 µM
  TGI: > 100 µM
PC-3 prostate
  GI50: 21.5 µM
  TGI: 57.1 µM
BT-549 breast
  GI50: 15.7 µM
  TGI: 36.7 µM
SW-620 colon
  GI50: 17.1 µM
  TGI: 30.8 µM
TK-10 renal
  GI50: 16 µM
  TGI: 38.3 µM
786-0 renal
  GI50: 33.8 µM
  TGI: > 100 µM
SNB-19 CNS
  GI50: 38 µM
  TGI: > 100 µM
T-47D breast
  GI50: > 100 µM
  TGI: > 100 µM
K-562 leukemia
  GI50: 15.2 µM
  TGI: 42.9 µM
UO-31 renal
  GI50: 15.5 µM
  TGI: 36.7 µM
RXF 393 renal
  GI50: 23.4 µM
  TGI: 48.9 µM
OVCAR-8 ovarian
  GI50: 16.8 µM
  TGI: 42.8 µM

## COc1cc(/C=C2\CCc3cc(OC)c(OC)cc3C2=O)cc(OC)c1
MCF7 breast
  TGI: > 84.3 µM
MALME-3M melanoma
  TGI: > 100 µM
NCI-H23 lung
  TGI: > 86.7 µM
SF-539 CNS
  TGI: > 31 µM
HOP-92 NSCLC
  TGI: > 100 µM
MDA-MB-435
  TGI: > 100 µM
OVCAR-4 ovarian
  TGI: > 100 µM
EKVX NSCLC
  TGI: > 100 µM
SF-268 CNS
  TGI: > 100 µM
SNB-75 CNS
  TGI: > 100 µM
HL-60(TB) leukemia
  TGI: > 24 µM
SK-MEL-5 melanoma
  TGI: 18.1 µM
CAKI-1 renal
  TGI: > 100 µM
COLO 205 colon
  TGI: > 52.1 µM
KM12 colon
  TGI: > 51.7 µM
NCI-H522 lung
  TGI: > 42.3 µM
MOLT-4 leukemia
  TGI: > 100 µM
SK-MEL-28 melanoma
  TGI: > 100 µM
SF-295 CNS
  TGI: > 25.1 µM
OVCAR-5 ovarian
  TGI: 99.3 µM
HCT-116 colon
  TGI: > 42.3 µM
DU-145 prostate
  TGI: 78.5 µM
IGROV1 ovarian
  TGI: > 100 µM
SK-MEL-2 melanoma
  TGI: > 57.8 µM
M14 melanoma
  TGI: > 100 µM
MDA-MB-231 breast
  TGI: > 100 µM
HT29 colon
  TGI: > 100 µM
NCI/ADR-RES ovarian
  TGI: 10.9 µM
ACHN renal
  TGI: > 100 µM
RPMI-8226 leukemia
  TGI: > 60.1 µM
SN12C renal
  TGI: 38.2 µM
HOP-62 NSCLC
  TGI: > 87.1 µM
NCI-H226 lung
  TGI: > 100 µM
SK-OV-3 ovarian
  TGI: > 100 µM
A549 NSCLC
  TGI: > 100 µM
CCRF-CEM leukemia
  TGI: > 60 µM
LOX IMVI melanoma
  TGI: 30.9 µM
U251 CNS
  TGI: > 100 µM
HCT-15 colon
  TGI: > 44.3 µM
HCC-2998 colon
  TGI: 15 µM
HS 578T breast
  TGI: > 100 µM
UACC-62 melanoma
  TGI: 18.4 µM
OVCAR-3 ovarian
  TGI: > 42 µM
NCI-H460 lung
  TGI: > 100 µM
UACC-257 melanoma
  TGI: > 100 µM
PC-3 prostate
  TGI: > 100 µM
BT-549 breast
  TGI: 65.8 µM
SW-620 colon
  TGI: > 100 µM
TK-10 renal
  TGI: > 100 µM
786-0 renal
  TGI: 48.7 µM
SNB-19 CNS
  TGI: > 100 µM
T-47D breast
  TGI: 62.1 µM
K-562 leukemia
  TGI: > 61 µM
UO-31 renal
  TGI: > 100 µM
RXF 393 renal
  TGI: > 42.4 µM
OVCAR-8 ovarian
  TGI: > 52 µM
A498 renal
  TGI: 39.8 µM

## C=CCN1C(=O)/C(=C/c2cccs2)N=C1SC1OC(COC(=O)c2ccccc2)C(OC(=O)c2ccccc2)C1OC(=O)c1ccccc1 (stereo unspecified)
MCF7 breast
  TGI: > 100 µM
MALME-3M melanoma
  TGI: > 100 µM
SR leukemia
  TGI: > 100 µM
NCI-H23 lung
  TGI: > 100 µM
SF-539 CNS
  TGI: > 100 µM
HOP-92 NSCLC
  TGI: > 100 µM
MDA-MB-435
  TGI: > 100 µM
OVCAR-4 ovarian
  TGI: > 100 µM
EKVX NSCLC
  TGI: > 100 µM
SNB-75 CNS
  TGI: > 100 µM
HL-60(TB) leukemia
  TGI: > 100 µM
SK-MEL-5 melanoma
  TGI: > 100 µM
CAKI-1 renal
  TGI: > 100 µM
COLO 205 colon
  TGI: > 100 µM
KM12 colon
  TGI: > 100 µM
NCI-H522 lung
  TGI: 28 µM
MOLT-4 leukemia
  TGI: > 100 µM
SK-MEL-28 melanoma
  TGI: > 100 µM
SF-295 CNS
  TGI: > 100 µM
OVCAR-5 ovarian
  TGI: > 100 µM
DU-145 prostate
  TGI: > 100 µM
IGROV1 ovarian
  TGI: > 100 µM
SK-MEL-2 melanoma
  TGI: > 100 µM
MDA-MB-231 breast
  TGI: > 100 µM
NCI/ADR-RES ovarian
  TGI: > 100 µM
ACHN renal
  TGI: > 100 µM
RPMI-8226 leukemia
  TGI: > 100 µM
HOP-62 NSCLC
  TGI: > 100 µM
NCI-H226 lung
  TGI: > 100 µM
SK-OV-3 ovarian
  TGI: > 100 µM
CCRF-CEM leukemia
  TGI: 80.9 µM
LOX IMVI melanoma
  TGI: > 100 µM
U251 CNS
  TGI: > 100 µM
HCT-15 colon
  TGI: > 100 µM
HCC-2998 colon
  TGI: > 100 µM
UACC-62 melanoma
  TGI: > 100 µM
OVCAR-3 ovarian
  TGI: > 100 µM
NCI-H460 lung
  TGI: > 100 µM
UACC-257 melanoma
  TGI: > 100 µM
PC-3 prostate
  TGI: > 100 µM
BT-549 breast
  TGI: > 100 µM
SW-620 colon
  TGI: > 100 µM
TK-10 renal
  TGI: > 100 µM
K-562 leukemia
  TGI: > 100 µM
RXF 393 renal
  TGI: > 100 µM
OVCAR-8 ovarian
  TGI: > 100 µM
A498 renal
  TGI: > 100 µM
